EP4740948A1 (Dong Wha Pharm. Co., Ltd., priority 2023, dated 2025)

Tests used:
EZH2 = EZH2 (Homo sapiens, UniProt Q15910); assay: AlphaLISA enzyme activity inhibition, EZH2; type: biochemical; details: for inhibition at 0.005 µM: 5nM test substance; for inhibition at 0.01 µM: 10nM test substance
How it was run: (§1)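 Enzyme inhibition rate was calculated relative to DMSO from AlphaLISA signal, with acceptor beads added after a 2 h methylation reaction and donor beads 1 h later. Each enzyme, EZH1 or EZH2, was pre-mixed with compound (final 5 nM or 10 nM) in Tris buffer pH 8.0 before histone H3 peptide and SAM initiated the reaction.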

Lovo cells = assay: Cancer cell proliferation inhibition (Cell Counting Kit-8), colorectal cancer cell line; type: cell-based; details: 1000 nM, cultured seven to 11 days; for % inhibition rate LoVo: 1 µM; for inhibition at 1 µM: Homo sapiens, LoVo, 264 h, read-out: % inhibition rate LoVo
How it was run: (§2)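 Percent inhibition, calculated as {1−(test group/control group)} × 100, comes from Cell Counting Kit-8 measurement. Treatment was 1000 nM test substance for seven to 11 days on cells plated at 100 to 1,000 per well in serum-containing medium.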

MIA-PaCa-2 cells = assay: Cancer cell proliferation inhibition (Cell Counting Kit-8), pancreatic cancer cell line; type: cell-based; details: 1000 nM, cultured seven to 11 days; for inhibition at 1 µM: Homo sapiens, MIA PaCa-2, 264 h, read-out: % inhibition rate MIA-Paca2
How it was run: as §2

NCI-H1299 cells = assay: Cancer cell proliferation inhibition (Cell Counting Kit-8), lung cancer cell line; type: cell-based; details: Homo sapiens, NCI-H1299, 264 h, 1000 nM, cultured seven to 11 days; read-out: % inhibition rate NCI-H129 9
How it was run: as §2

MKN-45 cells = assay: Cancer cell proliferation inhibition (Cell Counting Kit-8), gastric cancer cell line; type: cell-based; details: 1000 nM, cultured seven to 11 days; for inhibition at 1 µM: Homo sapiens, MKN-45, 264 h, read-out: % inhibition rate MKN -45
How it was run: (§3)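 Single 1000 nM dose of test substance, applied to cells seeded at 100–1,000 per well in 10% FBS medium, then culture for seven to 11 days. CCK-8 read-out; inhibition rate expressed as percent relative to untreated control.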

SW-13 cells = assay: Cancer cell proliferation inhibition (Cell Counting Kit-8), adrenal cancer cell line; type: cell-based; details: 1000 nM, cultured seven to 11 days; for inhibition at 1 µM: Homo sapiens, SW13, 264 h, read-out: % inhibition rate SW-13
How it was run: as §2

G401 cells = assay: Cancer cell proliferation inhibition (Cell Counting Kit-8), rhabdoid tumor cell line; type: cell-based; details: 1000 nM, cultured seven to 11 days; for % inhibition rate G401: 1 µM; for inhibition at 1 µM: Homo sapiens, G-401, 264 h, read-out: % inhibition rate G401
How it was run: as §3

EZH1 = EZH1 (Homo sapiens, UniProt Q92800); assay: AlphaLISA enzyme activity inhibition, EZH1; type: biochemical; details: for inhibition at 0.005 µM: 5nM test substance; for inhibition at 0.01 µM: 10nM test substance
EZH1, sequence (Q92800 whole entry, species assumed): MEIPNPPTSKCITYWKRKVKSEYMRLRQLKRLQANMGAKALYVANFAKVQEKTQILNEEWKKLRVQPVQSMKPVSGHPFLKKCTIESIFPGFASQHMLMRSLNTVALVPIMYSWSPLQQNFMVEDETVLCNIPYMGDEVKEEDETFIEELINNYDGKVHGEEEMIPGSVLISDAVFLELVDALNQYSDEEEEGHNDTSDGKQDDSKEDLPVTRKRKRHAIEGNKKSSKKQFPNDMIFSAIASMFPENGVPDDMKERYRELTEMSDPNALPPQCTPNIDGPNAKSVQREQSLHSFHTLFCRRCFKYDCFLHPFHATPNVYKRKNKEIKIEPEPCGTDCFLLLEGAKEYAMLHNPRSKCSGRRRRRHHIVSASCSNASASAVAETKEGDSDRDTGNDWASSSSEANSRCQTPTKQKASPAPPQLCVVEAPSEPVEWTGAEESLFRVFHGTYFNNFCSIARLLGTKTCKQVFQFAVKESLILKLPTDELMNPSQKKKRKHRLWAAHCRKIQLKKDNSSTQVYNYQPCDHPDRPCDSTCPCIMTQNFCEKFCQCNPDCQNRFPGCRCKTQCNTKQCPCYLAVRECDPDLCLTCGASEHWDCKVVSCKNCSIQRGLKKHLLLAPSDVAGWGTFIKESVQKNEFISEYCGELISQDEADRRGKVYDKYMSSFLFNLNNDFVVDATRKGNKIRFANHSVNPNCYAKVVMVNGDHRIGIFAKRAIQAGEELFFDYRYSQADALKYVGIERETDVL
EZH1, sequence (O75530 whole entry partner, species assumed): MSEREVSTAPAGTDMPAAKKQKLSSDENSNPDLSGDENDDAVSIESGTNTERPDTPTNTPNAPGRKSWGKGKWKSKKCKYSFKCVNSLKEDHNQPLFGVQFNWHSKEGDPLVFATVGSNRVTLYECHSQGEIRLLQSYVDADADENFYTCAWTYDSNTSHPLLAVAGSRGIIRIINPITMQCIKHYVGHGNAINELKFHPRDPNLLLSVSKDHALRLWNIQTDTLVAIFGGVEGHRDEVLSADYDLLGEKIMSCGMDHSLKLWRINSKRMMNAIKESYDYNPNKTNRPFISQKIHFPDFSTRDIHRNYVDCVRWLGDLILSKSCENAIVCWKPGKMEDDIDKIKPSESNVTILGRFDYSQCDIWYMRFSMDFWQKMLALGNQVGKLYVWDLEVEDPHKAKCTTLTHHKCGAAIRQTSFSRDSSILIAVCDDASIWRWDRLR
EZH1, sequence (Q15022 whole entry partner, species assumed): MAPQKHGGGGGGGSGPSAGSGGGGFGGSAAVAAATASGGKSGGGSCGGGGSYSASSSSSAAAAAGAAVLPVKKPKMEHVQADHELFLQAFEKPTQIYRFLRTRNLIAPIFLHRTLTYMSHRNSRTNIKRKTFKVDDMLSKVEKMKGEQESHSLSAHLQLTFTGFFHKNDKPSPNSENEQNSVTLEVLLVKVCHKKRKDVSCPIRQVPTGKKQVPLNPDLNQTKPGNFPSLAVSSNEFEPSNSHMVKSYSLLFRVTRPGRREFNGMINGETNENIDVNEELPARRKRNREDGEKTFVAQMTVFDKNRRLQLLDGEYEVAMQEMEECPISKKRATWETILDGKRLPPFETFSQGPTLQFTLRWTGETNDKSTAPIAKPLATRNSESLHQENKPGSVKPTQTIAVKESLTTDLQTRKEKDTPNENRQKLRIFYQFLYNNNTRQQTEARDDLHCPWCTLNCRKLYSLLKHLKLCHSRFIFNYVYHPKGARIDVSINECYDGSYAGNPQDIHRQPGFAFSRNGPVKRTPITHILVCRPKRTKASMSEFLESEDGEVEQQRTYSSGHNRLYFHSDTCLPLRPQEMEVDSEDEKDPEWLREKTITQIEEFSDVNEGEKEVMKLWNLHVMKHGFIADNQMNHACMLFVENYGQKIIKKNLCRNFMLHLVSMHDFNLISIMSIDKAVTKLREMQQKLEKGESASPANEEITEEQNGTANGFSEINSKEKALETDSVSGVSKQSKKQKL
How it was run: as §1

EZH2, sequence (Q15910 whole entry, species assumed): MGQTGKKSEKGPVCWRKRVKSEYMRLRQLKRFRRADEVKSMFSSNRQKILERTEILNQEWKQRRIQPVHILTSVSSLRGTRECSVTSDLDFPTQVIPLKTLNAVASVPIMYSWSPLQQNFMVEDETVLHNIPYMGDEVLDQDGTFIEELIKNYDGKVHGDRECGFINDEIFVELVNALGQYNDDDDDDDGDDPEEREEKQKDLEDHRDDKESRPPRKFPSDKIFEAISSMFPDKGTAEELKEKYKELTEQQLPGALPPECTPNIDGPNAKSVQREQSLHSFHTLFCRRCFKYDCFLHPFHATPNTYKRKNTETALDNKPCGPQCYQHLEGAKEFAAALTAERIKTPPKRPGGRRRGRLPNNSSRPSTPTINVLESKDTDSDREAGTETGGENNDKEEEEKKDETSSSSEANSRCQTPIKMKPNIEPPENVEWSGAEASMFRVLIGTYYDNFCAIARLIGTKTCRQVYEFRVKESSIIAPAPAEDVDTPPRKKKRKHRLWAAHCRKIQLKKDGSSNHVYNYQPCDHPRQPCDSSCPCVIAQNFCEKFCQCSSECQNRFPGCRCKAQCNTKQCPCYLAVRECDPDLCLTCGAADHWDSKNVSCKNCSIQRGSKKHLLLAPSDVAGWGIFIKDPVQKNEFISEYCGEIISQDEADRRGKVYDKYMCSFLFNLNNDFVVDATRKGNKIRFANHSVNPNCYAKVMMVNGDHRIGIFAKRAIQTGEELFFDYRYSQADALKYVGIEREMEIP
EZH2, sequence (O75530 whole entry partner, species assumed): as the sequence (O75530 whole entry partner, species assumed) above
EZH2, sequence (Q15022 whole entry partner, species assumed): as the sequence (Q15022 whole entry partner, species assumed) above

Row | inhibition at 0.005 µM (EZH2) [%] | inhibition at 0.01 µM (EZH2) [%] | inhibition at 0.005 µM (EZH1) [%] | inhibition at 0.01 µM (EZH1) [%] | Compound | % inhibition rate LoVo (Lovo cells) | inhibition at 1 µM (MIA-PaCa-2 cells) [%] | inhibition at 1 µM (NCI-H1299 cells) [%] | inhibition at 1 µM (MKN-45 cells) [%] | inhibition at 1 µM (SW-13 cells) [%] | % inhibition rate G401 (G401 cells) | inhibition at 1 µM (Lovo cells) [%] | inhibition at 1 µM (G401 cells) [%] | % inhibition rate MIA-Paca2 (MIA-PaCa-2 cells; 1 µM) | % inhibition rate MKN -45 (MKN-45 cells; 1 µM) | % inhibition rate SW-13 (SW-13 cells; 1 µM)
1 | 99.2 | 99.6 | 82.5 | 90.5 | CSc1cc(C)[nH]c(=O)c1CNC(=O)c1cc(-c2ccc(N3CCOCC3)nc2)c2c(c1C)OC(C)(C1CCN(CC(F)F)CC1)O2 (single isomer, unassigned) [Compound 64, 2-(1-(2,2-difluoroethyl)piperidin-4-yl)-2,4-dimethyl-N-((6-methyl-4-(methylthio)-2-oxo-1,2-dihydropyridin-3-yl)methyl)-7-(6-morpholinopyridin-3-yl)benzo[d][1,3]dioxole-5-carboxamide] | +++ (+++: ≥70%) | ≤ 30 | ≤ 30 | 30 to 70 | 30 to 70 | +++ (+++: ≥70%) |  |  |  |  | 
2 | 95.8 |  | 80.2 |  | COCCN(C)[C@H]1CC[C@H](C2(C)Oc3c(-c4ccc(N5CCC(F)(F)CC5)nc4)cc(C(=O)NCc4c(SC)cc(C)[nH]c4=O)c(C)c3O2)CC1 (relative stereo) [Compound 27, 7-(6-(4,4-difluoropiperidin-1-yl)pyridin-3-yl)-2-(trans-4-((2-methoxyethyl)(methyl)amino)cyclohexyl)-2,4-dimethyl-N-((6-methyl-4-(methylthio)-2-oxo-1,2-dihydropyridin-3-yl)methyl)benzo[d][1,3]dioxole-5-carboxamide] |  | ≤ 30 | ≤ 30 | 30 to 70 | 30 to 70 |  | ≥ 70 | 30 to 70 |  |  | 
3 | 99.5 | 100 | 40 | 71 | CCN1CCC(C2(C)Oc3c(-c4ccc(N(C)CC)nc4)cc(C(=O)NCc4c(SC)cc(C)[nH]c4=O)c(C)c3O2)CC1 (single isomer, unassigned) [Compound 89, 7-(6-(ethyl(methyl)amino)pyridin-3-yl)-2-(1-ethylpiperidin-4-yl)-2,4-dimethyl-N-((6-methyl-4-(methylthio)-2-oxo-1,2-dihydropyridin-3-yl)methyl)benzo[d][1,3]dioxole-5-carboxamide] |  | ≤ 30 | ≤ 30 | ≤ 30 | 30 to 70 |  | ≥ 70 | ≥ 70 |  |  | 
4 | 96.1 | 99.5 | 68.5 | 82.8 | CSc1cc(C)[nH]c(=O)c1CNC(=O)c1cc(-c2cnc(N3CCOCC3)nc2)c2c(c1C)OC(C)(C1CCN(CC(F)F)CC1)O2 (single isomer, unassigned) [Compound 71, 2-(1-(2,2-difluoroethyl)piperidin-4-yl)-2,4-dimethyl-N-((6-methyl-4-(methylthio)-2-oxo-1,2-dihydropyridin-3-yl)methyl)-7-(2-morpholinopyrimidin-5-yl)benzo[d][1,3]dioxole-5-carboxamide] |  | ≤ 30 | 30 to 70 | 30 to 70 | 30 to 70 | +++ (+++: ≥70%) | ≥ 70 |  |  |  | 
5 | 98.7 | 100 | 38.8 | 78.1 | CSc1cc(C)[nH]c(=O)c1CNC(=O)c1cc(-c2ccc(N3C[C@@H](C)O[C@@H](C)C3)nc2)c2c(c1C)OC(C)([C@H]1CC[C@H](N3CC(O)C3)CC1)O2 (stereo partly drawn) [Compound 101, 7-(6-((2S,6R)-2,6-dimethylmorpholino)pyridin-3-yl)-2-(trans-4-(3-hydroxyazetidin-1-yl)cyclohexyl)-2,4-dimethyl-N-((6-methyl-4-(methylthio)-2-oxo-1,2-dihydropyridin-3-yl)methyl)benzo[d][1,3]dioxole-5-carboxamide] |  | ≤ 30 | ≤ 30 | ≤ 30 | 30 to 70 |  | 30 to 70 | ≥ 70 |  |  | 
6 | 96 | 99.4 | 58.9 | 76.2 | CSc1cc(C)[nH]c(=O)c1CNC(=O)c1cc(-c2ccc(N3C[C@@H](C)O[C@@H](C)C3)nc2)c2c(c1C)OC(C)(C1CCN(CCCC(F)(F)F)CC1)O2 (single isomer, unassigned) [Compound 57] | +++ (+++: ≥70%) | 30 to 70 | 30 to 70 | 30 to 70 | 30 to 70 | +++ (+++: ≥70%) |  |  |  |  | 
7 | 34.2 |  | 31.4 |  | CSc1cc(C)[nH]c(=O)c1CNC(=O)c1cc(-c2cnc(N3C[C@@H](C)O[C@@H](C)C3)nc2)c2c(c1C)OC(C)([C@H]1CC[C@H](N(C)CC(F)(F)F)CC1)O2 (stereo partly drawn) [Compound 23, 7-(2-((2S,6R)-2,6-dimethylmorpholino)pyrimidin-5-yl)-2,4-dimethyl-2-(trans-4-(methyl(2,2,2-trifluoroethyl)amino)cyclohexyl)-N-((6-methyl-4-(methylthio)-2-oxo-1,2-dihydropyridin-3-yl)methyl)benzo[d][1,3]dioxole-5-carboxamide] |  | ≤ 30 | ≤ 30 | ≤ 30 | ≤ 30 |  | ≥ 70 | 30 to 70 |  |  | 
8 | 27.1 | 72.5 | 10.7 | 20.5 | CSc1cc(C)[nH]c(=O)c1CNC(=O)c1cc(-c2ccc(N3C[C@@H](C)O[C@@H](C)C3)nc2)c2c(c1C)OC(C)([C@H]1CC[C@H](N3CC(OCC(F)F)C3)CC1)O2 (stereo partly drawn) [Compound 103, 2-(trans-4-(3-(2,2-difluoroethoxy)azetidin-1-yl)cyclohexyl)-7-(6-((2S,6R)-2,6-dimethylmorpholino)pyridin-3-yl)-2,4-dimethyl-N-((6-methyl-4-(methylthio)-2-oxo-1,2-dihydropyridin-3-yl)methyl)benzo[d][1,3]dioxole-5-carboxamide] |  |  | ≤ 30 |  |  |  | ≥ 70 | ≥ 70 | +++ (+++: ≥70%) | +++ (+++: ≥70%) | +++ (+++: ≥70%)
9 | 97.6 |  | 86.4 |  | CSc1cc(C)[nH]c(=O)c1CNC(=O)c1cc(-c2ccc(F)nc2F)c2c(c1C)OC(C)([C@H]1CC[C@H](N(C)C)CC1)O2 (relative stereo) [Compound 14, 7-(2,6-difluoropyridin-3-yl)-2-(trans-4-(dimethylamino)cyclohexyl)-2,4-dimethyl-N-((6-methyl-4-(methylthio)-2-oxo-1,2-dihydropyridin-3-yl)methyl)benzo[d][1,3]dioxole-5-carboxamide] |  | ≤ 30 | ≤ 30 | ≤ 30 | 30 to 70 |  | ≥ 70 | 30 to 70 |  |  | 
10 | 99.2 | 99.8 | 80.4 | 90.8 | CCN(C)c1ncc(-c2cc(C(=O)NCc3c(SC)cc(C)[nH]c3=O)c(C)c3c2OC(C)(C2CCN(CC(F)F)CC2)O3)cn1 (single isomer, unassigned) [Compound 81, 2-(1-(2,2-difluoroethyl)piperidin-4-yl)-7-(2-(ethyl(methyl)amino)pyrimidin-5-yl)-2,4-dimethyl-N-((6-methyl-4-(methylthio)-2-oxo-1,2-dihydropyridin-3-yl)methyl)benzo[d][1,3]dioxole-5-carboxamide] |  | ≤ 30 | ≤ 30 | 30 to 70 | 30 to 70 | +++ (+++: ≥70%) | ≥ 70 |  |  |  | 
11 | 62.4 | 76.5 | 37.1 | 42.9 | CCCCN(C)c1ncc(-c2cc(C(=O)NCc3c(SC)cc(C)[nH]c3=O)c(C)c3c2OC(C)(C2CCN(CC(F)(F)F)CC2)O3)cn1 (centres unmarked) [Compound 99] |  | ≤ 30 | ≤ 30 | 30 to 70 | 30 to 70 |  | ≥ 70 | 30 to 70 |  |  | 
